Results published in ChEMBL document CHEMBL5579820, “New insights into butyrylcholinesterase: Pharmaceutical applications, selective inhibitors and multitarget-directed ligands” (Eur J Med Chem, 2024).
“And” between values parts separate entries of the source, which are not always exact repeats. Equal entries are not always repeated.

Assays:
Cholinesterase [1] = target: T1, Cholinesterase (Equus caballus, UniProt P81908); test: Inhibition of equine BuChE
[2] = target: Acetylcholinesterase (Electrophorus electricus) (UniProt O42275); test: Inhibition of electric eel AChE using acetylthiocholine iodide as substrate at 50 uM by Ellman's method relative to control
Sequence of Acetylcholinesterase (Electrophorus electricus) (O42275 24-633 limits assumed): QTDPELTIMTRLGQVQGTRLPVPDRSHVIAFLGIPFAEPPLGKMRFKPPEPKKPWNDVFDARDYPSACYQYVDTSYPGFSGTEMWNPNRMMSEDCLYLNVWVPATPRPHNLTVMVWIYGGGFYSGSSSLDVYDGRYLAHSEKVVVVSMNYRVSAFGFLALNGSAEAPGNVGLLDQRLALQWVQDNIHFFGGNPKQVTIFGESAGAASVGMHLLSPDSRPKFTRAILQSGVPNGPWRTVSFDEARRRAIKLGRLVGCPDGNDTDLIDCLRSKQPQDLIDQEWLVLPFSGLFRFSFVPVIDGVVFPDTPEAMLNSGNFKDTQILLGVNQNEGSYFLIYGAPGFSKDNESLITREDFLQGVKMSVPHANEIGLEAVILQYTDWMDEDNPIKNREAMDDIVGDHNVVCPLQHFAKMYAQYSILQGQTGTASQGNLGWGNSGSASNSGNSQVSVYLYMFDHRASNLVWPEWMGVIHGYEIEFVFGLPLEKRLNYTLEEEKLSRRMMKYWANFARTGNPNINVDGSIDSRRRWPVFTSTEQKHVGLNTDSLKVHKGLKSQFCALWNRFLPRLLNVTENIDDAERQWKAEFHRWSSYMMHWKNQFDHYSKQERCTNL

[3] = Selectivity index, ratio of IC50 for human AChE using acetylthiocholine iodide as substrate to IC50 for equine serum BuChE using butyrylthiocholine iodide as substrate
Acetylcholinesterase [4] = target: T2, Acetylcholinesterase (Homo sapiens, UniProt P22303)
T2 sequence (P22303 whole entry): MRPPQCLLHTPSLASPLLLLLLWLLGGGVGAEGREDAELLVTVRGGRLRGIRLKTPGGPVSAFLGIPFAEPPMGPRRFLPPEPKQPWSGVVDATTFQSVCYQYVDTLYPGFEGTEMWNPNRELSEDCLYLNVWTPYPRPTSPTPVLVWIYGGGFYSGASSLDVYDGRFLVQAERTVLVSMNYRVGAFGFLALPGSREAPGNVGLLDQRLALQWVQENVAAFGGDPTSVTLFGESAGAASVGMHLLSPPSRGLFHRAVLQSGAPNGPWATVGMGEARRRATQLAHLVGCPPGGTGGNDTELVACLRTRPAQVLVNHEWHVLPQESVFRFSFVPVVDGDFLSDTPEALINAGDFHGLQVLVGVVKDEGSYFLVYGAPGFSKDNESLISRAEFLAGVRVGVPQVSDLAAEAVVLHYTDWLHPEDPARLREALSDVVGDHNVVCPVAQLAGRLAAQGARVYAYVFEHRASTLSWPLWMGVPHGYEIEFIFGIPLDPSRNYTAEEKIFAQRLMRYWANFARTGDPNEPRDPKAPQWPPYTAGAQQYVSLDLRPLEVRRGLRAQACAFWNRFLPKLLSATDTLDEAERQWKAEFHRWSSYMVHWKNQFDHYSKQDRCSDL

Acetylcholinesterase [5] = target: T2, Acetylcholinesterase; test: Inhibition of human AChE at 15 uM relative to control
[6] = Selectivity index, ratio of IC50 for human erythrocyte AChE to IC50 for equine BuChE
Acetylcholinesterase [7] = target: T3, Acetylcholinesterase (Electrophorus electricus, UniProt O42275); test: Inhibition of electric eel AChE
T3 sequence (O42275 whole entry): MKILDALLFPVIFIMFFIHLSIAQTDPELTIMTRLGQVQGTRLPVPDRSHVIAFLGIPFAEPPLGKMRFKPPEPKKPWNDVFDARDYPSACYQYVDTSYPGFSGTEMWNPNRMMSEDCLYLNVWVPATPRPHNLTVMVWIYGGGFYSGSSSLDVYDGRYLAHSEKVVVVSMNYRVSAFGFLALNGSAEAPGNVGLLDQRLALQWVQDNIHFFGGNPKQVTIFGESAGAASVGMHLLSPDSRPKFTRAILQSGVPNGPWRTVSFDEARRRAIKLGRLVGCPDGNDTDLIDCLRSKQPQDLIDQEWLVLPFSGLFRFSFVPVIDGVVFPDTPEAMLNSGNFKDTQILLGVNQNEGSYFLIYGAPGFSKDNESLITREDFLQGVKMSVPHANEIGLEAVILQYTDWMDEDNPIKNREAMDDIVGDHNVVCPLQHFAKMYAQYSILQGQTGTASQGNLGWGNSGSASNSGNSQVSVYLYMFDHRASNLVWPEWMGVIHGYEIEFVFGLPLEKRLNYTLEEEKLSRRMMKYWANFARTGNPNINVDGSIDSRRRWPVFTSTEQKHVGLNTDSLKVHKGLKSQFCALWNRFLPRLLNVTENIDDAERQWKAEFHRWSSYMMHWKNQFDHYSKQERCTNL

Cholinesterase [8] = target: T4, Cholinesterase (Homo sapiens, UniProt P06276); test: Inhibition of human BChE using butyrylthiocholineiodide as substrate at 10 uM by Ellman's method relative to control
T4 sequence (P06276 whole entry): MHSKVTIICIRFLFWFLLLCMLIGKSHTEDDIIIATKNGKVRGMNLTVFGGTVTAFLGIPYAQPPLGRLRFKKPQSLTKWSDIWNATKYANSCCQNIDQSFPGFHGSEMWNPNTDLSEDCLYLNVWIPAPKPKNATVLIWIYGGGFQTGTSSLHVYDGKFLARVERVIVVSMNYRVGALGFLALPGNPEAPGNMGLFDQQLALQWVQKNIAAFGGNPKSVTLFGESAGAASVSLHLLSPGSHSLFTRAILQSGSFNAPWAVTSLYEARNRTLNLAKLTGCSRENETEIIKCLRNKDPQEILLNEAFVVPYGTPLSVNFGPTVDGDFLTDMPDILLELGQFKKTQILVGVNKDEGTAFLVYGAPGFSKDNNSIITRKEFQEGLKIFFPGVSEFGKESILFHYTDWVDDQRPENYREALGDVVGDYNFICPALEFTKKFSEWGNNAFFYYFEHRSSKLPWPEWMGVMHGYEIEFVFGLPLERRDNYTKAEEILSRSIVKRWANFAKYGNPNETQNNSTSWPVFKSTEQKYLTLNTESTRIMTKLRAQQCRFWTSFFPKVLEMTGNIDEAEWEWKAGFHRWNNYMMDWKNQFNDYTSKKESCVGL

Cholinesterase [9] = target: T4, Cholinesterase; test: Inhibition of human BChE using butyrylthiocholine as substrate by Ellman's method
Cholinesterase [10] = target: T4, Cholinesterase
[11] = target: Cholinesterases; ACHE & BCHE (Homo sapiens) (UniProt P06276+P22303); test: Selectivity index, ratio of IC50 for inhibition of human AChE to IC50 for inhibition of human BChE; type: protein assay
Sequence of Cholinesterases; ACHE & BCHE (Homo sapiens) (P06276 whole entry, looked up): as the sequence (P06276 whole entry) above
Sequence of Cholinesterases; ACHE & BCHE (Homo sapiens) (P22303 whole entry, looked up): as the sequence (P22303 whole entry) above

Acetylcholinesterase [12] = target: T3, Acetylcholinesterase; test: Inhibition of electric eel AChE using acetylthiocholine iodide as substrate after 60 mins by Ellman's method
Cholinesterase [13] = target: T1, Cholinesterase; test: Inhibition of equine serum BuChE by Ellman's method
[14] = Inhibition of equine serum BChE using butyrylthiocholine iodide as substrate by Ellman's method; set-up: species or system Equus caballus
Acetylcholinesterase [15] = target: T3, Acetylcholinesterase; test: Inhibition of Electric eel AChE using […] as substrate by spectrophotometry based Ellman's method
[16] = Selectivity index, ratio of IC50 for electric eel AChE to IC50 for equine serum BuChE
[17] = target: T5, Amine oxidase [flavin-containing] A (Homo sapiens, UniProt P21397); test: Inhibition of human recombinant MAO-A using kynuramine as substrate by incubated for 75 mins by spectrophotometric analysis
T5 sequence (P21397 whole entry): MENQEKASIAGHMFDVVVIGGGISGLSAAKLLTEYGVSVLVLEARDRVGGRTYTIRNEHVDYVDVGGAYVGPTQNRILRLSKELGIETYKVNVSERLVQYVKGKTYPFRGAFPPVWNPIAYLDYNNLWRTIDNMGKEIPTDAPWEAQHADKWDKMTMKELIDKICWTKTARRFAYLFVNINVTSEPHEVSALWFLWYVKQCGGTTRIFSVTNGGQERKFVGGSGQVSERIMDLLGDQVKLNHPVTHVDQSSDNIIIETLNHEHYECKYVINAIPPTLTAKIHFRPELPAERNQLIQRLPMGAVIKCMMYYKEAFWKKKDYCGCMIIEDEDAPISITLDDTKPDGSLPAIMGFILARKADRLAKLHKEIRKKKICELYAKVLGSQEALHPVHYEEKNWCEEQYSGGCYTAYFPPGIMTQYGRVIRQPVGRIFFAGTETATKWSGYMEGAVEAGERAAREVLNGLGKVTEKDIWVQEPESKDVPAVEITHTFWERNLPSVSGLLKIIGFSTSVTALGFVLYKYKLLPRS

[18] = Inhibition of equine serum BChE using butyrylthiocholine iodide as substrate by measured after 30 mins Ellman's method; type: cell-free, Equus caballus
[19] = target: T6, Amine oxidase [flavin-containing] B (Homo sapiens, UniProt P27338); test: Inhibition of human recombinant MAO-B using benzylamine as substrate by fluorescence based analysis
T6 sequence (P27338 whole entry): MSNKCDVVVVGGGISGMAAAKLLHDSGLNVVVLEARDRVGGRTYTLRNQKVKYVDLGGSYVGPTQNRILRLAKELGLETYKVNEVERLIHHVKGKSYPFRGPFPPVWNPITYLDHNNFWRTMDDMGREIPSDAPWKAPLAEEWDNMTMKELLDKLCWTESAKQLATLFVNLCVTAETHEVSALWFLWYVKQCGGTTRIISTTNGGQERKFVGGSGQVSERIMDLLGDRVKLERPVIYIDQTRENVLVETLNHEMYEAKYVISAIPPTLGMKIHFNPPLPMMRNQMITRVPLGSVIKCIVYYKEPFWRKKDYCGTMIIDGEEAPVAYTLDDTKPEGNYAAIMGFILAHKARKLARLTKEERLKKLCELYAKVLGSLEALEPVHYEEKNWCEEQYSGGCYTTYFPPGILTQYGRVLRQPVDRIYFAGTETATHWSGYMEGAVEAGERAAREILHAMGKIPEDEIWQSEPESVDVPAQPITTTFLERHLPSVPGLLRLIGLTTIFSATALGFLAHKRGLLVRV

Cholinesterase [20] = target: T1, Cholinesterase; test: Inhibition of equine serum BuChE using butyrylthiocholine iodide as substrate preincubated for 60 mins followed by susbtrate addition by Ellaman"s method; type: cell-free
Cholinesterase [21] = target: T4, Cholinesterase; test: Inhibition of human BChE using butyrylthiocholine iodide as substrate preincubated for 15 min followed by substrate addition measured after 40 min by Ellman's method
[22] = target: T7, Protein deacetylase HDAC6 (Homo sapiens, UniProt Q9UBN7); test: Inhibition of HDAC6 (unknown origin)
T7 sequence (Q9UBN7 whole entry): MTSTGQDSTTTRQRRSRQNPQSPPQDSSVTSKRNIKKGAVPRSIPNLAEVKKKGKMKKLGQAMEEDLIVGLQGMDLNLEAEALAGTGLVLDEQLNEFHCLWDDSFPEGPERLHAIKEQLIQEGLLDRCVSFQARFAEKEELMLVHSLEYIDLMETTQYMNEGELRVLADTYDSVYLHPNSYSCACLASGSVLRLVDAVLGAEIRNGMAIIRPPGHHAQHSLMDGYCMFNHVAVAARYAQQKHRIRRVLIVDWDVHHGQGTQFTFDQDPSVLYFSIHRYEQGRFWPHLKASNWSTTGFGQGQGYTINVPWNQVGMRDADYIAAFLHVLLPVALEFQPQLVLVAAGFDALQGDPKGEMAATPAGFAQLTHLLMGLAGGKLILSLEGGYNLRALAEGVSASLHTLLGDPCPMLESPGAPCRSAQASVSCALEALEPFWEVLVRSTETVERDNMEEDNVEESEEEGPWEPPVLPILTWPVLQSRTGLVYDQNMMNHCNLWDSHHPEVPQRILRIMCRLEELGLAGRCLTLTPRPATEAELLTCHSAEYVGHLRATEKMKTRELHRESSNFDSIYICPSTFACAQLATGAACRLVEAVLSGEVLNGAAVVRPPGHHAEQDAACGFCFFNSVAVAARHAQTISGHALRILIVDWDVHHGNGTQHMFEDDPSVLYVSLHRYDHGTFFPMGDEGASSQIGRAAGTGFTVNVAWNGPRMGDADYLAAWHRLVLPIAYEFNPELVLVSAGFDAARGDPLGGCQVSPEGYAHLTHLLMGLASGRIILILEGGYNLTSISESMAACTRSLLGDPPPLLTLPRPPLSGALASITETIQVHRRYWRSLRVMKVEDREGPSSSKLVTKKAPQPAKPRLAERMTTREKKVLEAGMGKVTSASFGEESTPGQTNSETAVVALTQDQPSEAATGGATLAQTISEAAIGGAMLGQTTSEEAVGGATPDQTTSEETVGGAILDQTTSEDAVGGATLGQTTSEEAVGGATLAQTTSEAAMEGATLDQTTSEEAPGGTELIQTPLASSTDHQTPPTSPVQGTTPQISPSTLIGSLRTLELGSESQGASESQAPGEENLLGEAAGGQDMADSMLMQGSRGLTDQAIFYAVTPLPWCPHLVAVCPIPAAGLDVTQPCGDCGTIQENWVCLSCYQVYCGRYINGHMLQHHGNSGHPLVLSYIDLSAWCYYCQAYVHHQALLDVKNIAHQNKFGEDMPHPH

[23] = Selectivity index, ratio of IC50 for human AChE to IC50 for equine BChE using butyrylthiocholine as substrate
[24] = target: Amyloid-beta precursor protein (Homo sapiens) (UniProt P05067); test: Inhibition of self induced amyloid-beta aggregation (1 to 42 residues) (unknown origin) at 20 uM by ThT fluorescence based spectrofluorimetric analysis relative to control
Sequence of Amyloid-beta precursor protein (Homo sapiens) (P05067 whole entry, the tested form may be a part): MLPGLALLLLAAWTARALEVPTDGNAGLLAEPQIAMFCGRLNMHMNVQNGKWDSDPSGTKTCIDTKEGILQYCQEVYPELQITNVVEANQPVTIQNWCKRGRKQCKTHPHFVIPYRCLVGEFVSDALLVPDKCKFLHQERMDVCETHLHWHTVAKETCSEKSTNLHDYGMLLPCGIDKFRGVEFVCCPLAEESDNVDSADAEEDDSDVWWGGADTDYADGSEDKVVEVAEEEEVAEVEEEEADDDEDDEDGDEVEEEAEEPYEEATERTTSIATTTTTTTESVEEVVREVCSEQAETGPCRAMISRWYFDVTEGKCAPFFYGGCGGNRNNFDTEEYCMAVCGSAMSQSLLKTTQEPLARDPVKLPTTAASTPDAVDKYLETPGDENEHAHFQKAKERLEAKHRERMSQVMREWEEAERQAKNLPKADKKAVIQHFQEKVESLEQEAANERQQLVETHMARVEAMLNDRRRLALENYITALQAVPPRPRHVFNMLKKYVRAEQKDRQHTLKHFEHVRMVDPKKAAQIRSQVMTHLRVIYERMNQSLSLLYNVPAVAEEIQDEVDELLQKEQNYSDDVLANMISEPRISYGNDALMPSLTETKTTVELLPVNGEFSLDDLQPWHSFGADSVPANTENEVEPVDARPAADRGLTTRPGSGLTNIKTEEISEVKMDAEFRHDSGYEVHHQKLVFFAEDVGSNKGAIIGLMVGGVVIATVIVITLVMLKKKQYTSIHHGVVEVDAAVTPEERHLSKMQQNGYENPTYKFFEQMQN

[25] = target: Cholinesterase (Equus caballus) (UniProt P81908); test: Inhibition of equine BChE at 100 uM by Ellman's method relative to control
Sequence of Cholinesterase (Equus caballus) (P81908 whole entry): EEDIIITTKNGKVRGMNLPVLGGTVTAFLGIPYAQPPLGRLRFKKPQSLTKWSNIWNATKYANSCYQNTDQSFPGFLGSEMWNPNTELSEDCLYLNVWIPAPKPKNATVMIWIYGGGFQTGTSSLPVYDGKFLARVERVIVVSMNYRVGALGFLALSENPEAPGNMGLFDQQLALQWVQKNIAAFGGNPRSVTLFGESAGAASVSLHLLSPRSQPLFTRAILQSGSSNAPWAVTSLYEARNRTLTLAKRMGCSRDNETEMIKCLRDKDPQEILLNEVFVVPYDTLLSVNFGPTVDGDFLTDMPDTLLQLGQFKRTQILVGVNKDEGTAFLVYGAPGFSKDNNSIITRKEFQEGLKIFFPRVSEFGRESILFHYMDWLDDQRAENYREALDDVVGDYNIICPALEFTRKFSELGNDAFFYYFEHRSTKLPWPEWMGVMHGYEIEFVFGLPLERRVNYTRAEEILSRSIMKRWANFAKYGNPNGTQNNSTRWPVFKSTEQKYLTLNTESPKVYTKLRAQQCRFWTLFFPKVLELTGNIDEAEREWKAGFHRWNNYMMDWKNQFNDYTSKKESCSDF

Acetylcholinesterase [26] = target: T2, Acetylcholinesterase; test: Inhibition of human AChE using acetylthiocholine iodide as substrate after 15 mins by Ellman's method
Cholinesterase [27] = target: T4, Cholinesterase; test: Inhibition of BChE (unknown origin)

T1 sequence (P81908 whole entry): as above

CCc1ccccc1NC(=O)c1ccc(NS(=O)(=O)c2ccccc2)cc1
IC50 (Cholinesterase [1]): 0.046 µM and 0.04 µM
inhibition [2]: 0.52%
Ratio IC50 [3]: > 1080
IC50 (Acetylcholinesterase [4]): > 50 µM

CCCCCCNC(=O)Oc1ccc2c(c1)CN1CCc3ccc(/N=N/c4ccccc4)cc3C1N2C (stereo not drawn)
inhibition (Acetylcholinesterase [5]): 28.5%

CC(C)(C)c1cc(CNCCNc2c3c(nc4ccccc24)CCCCC3)cc(C(C)(C)C)c1O
Ratio IC50 [6]: 23

COc1cccc(C(=O)OCc2ccccc2)c1OC(=O)N(C)OC
IC50 (Cholinesterase [1]): 0.99 µM
IC50 (Acetylcholinesterase [7]): > 100 µM
inhibition (Cholinesterase [8]): 50%

C/C(NCCCCNc1c2c(nc3ccccc13)CCCC2)=C(/N=N/c1ccc(C)cc1)C(=O)c1ccccc1
IC50 (Cholinesterase [9]): 0.35 µM

CCN(CC)C(=O)c1ccc2c(c1)nc(Cc1ccc(OC(=O)N3CCC3)cc1)n2CCC(C)C
IC50 (Cholinesterase [10]): 0.006 µM
Ratio IC50 [11]: 10

COc1ccc2c(c1)CC/C(=C\c1ccc[n+](Cc3ccc(Br)cc3)c1)C2=O
IC50 (Acetylcholinesterase [12]): 17.6 µM
IC50 (Cholinesterase [13]): 0.883 µM

CCc1[nH]c2ccccc2c1CCN1CCC[C@H](CC)C1
IC50 (Cholinesterase [10]): 0.65 µM
IC50 (Acetylcholinesterase [4]): > 100 µM

CCC(CC)CN[C@H](Cc1c[nH]c2ccccc12)C(=O)NCCN1CCc2ccccc2C1
IC50 (Acetylcholinesterase [7]): > 10 µM
IC50 (Cholinesterase [10]): 0.3 µM

COc1cccc(NC(=O)CN(C)[C@@H](C)C(=O)c2c[nH]c3ccccc23)c1
IC50 (Cholinesterase [10]): 4.24 µM
IC50 (Acetylcholinesterase [4]): > 100 µM

CCC(=O)N(CC(=O)Nc1ccccc1C)Cc1ccccc1
IC50 (Acetylcholinesterase [12]): > 1610 µM
IC50 (Cholinesterase [13]): 25.9 µM

Cc1ccc(-c2nc3cc(C(=O)Nc4ccc(O)cc4)ccc3[nH]2)cc1
IC50 [14]: 1.13 µM
IC50 (Acetylcholinesterase [15]): > 100 µM

CCCCCCNC(=O)Oc1ccc2[nH]cc(CCNC(=O)c3ccccc3Nc3ccccc3)c2c1
IC50 (Cholinesterase [1]): 0.007 µM
IC50 (Acetylcholinesterase [7]): > 100 µM
Ratio IC50 [16]: > 14300

CN(C)C(=O)Oc1ccc(C(=O)C2CCC(Cc3ccccc3)CC2)c(OC(=O)N(C)C)c1 (stereo not drawn)
IC50 (Cholinesterase [1]): 0.53 µM
IC50 (Acetylcholinesterase [7]): 7.8 µM

[O-]/[N+](=C\c1ccc2cccc(O)c2n1)Cc1ccccc1
IC50 [17]: > 100 µM

c1ccc(CN2CCC(NCCCCCCn3c4ccccc4c4ccccc43)CC2)cc1
IC50 (Cholinesterase [1]): 0.18 µM
IC50 (Acetylcholinesterase [7]): 26.5 µM

O=C(/C=C/c1ccccc1Cl)c1cc2ccccc2oc1=O
IC50 [18]: 7 µM
IC50 [17]: > 40 µM
IC50 [19]: 0.51 µM

O=C(NCCCCCCCCNc1c2c(nc3ccccc13)CCCC2)c1ccccc1O
IC50 (Cholinesterase [20]): 0.01 µM

CCN(CC)Cc1ccccc1CNC(=O)c1cccc(NC(=O)c2cccc(C(=O)NO)c2)c1
IC50 (Cholinesterase [21]): 0.0018 µM
IC50 [22]: 0.071 µM

O=C(CNCCCCNCC(=O)Nc1c2c(nc3c1CCC3)CCCC2)Nc1c2c(nc3c1CCC3)CCCC2
Ratio IC50 [23]: 22

CCNC(=S)N/N=C/c1c(OC)cc(OC)c2c(-c3ccccc3)c[nH]c12
IC50 (Cholinesterase [10]): 1.95 µM
IC50 (Acetylcholinesterase [4]): 59.4 µM

CCN(C)C(=O)Oc1ccc(CCCNC(=O)c2cccc3[nH]c(-c4ccccc4O)nc23)cc1
inhibition [24]: 60.8%

CCCCCCNC(=O)Oc1ccc2c(c1)CN1CCc3ccc(/N=N\c4ccccc4)cc3C1N2C (stereo not drawn)
IC50 (Cholinesterase [10]): 0.044 µM
inhibition (Acetylcholinesterase [5]): 54.9%

O=C(Nc1ccccc1Cl)C(NS(=O)(=O)c1ccccc1)c1ccccc1 (stereo not drawn)
IC50 (Cholinesterase [1]): 7.33 µM
inhibition [2]: 1.62%

NNc1nc(NN)nc(NCCNC(=O)c2cc3c([nH]c4ccccc43)c(-c3ccccc3)n2)n1
IC50 (Cholinesterase [1]): 1 µM
inhibition [25]: 29.5%

COc1cc(CNCCCNc2c3c(nc4ccccc24)CCCCC3)ccc1O
IC50 (Acetylcholinesterase [26]): 3.01 µM
IC50 (Cholinesterase [27]): 0.357 µM

O=C(NCCCCCCNc1c2c(nc3ccccc13)CCCC2)c1ccccc1O
IC50 (Cholinesterase [1]): 0.01 µM
IC50 (Acetylcholinesterase [26]): 0.02 µM

Fc1ccc2c(c1)c1c(n2CCN2CCCCC2)CCCC1
IC50 (Cholinesterase [1]): 0.11 µM
IC50 (Acetylcholinesterase [7]): > 100 µM

CCN(CC)Cc1ccccc1CNC(=O)c1cccc(NC(=O)c2cccc(NC(=O)CCCCCCC(=O)NO)c2)c1
IC50 (Cholinesterase [21]): 0.004 µM
IC50 [22]: 0.0089 µM

Cc1ccc(-c2nc3cc(C(=O)NNc4ccc(Br)cc4)ccc3[nH]2)cc1
IC50 [14]: 1.46 µM
IC50 (Acetylcholinesterase [15]): > 100 µM

CON(C)C(=O)Oc1cc(C)ccc1C(=O)NCCc1c[nH]c2ccc(Cl)cc12
IC50 (Cholinesterase [1]): 0.057 µM
IC50 (Acetylcholinesterase [7]): > 100 µM
Ratio IC50 [16]: > 1750

CC(C)N(Cc1ccccc1)C(=O)/C=C/C=C/c1ccc2c(c1)OCO2
IC50 (Acetylcholinesterase [12]): > 1000 µM
IC50 (Cholinesterase [13]): 4.6 µM
